For the test, the target named is T1, human lysophosphatidic acid receptor 1 (LPAR1) (Homo sapiens, UniProt Q92633).
T1 construct: host or cells: CHO-K1 (Chinese hamster ovary K1) cells, CHO-K1/LPA1R, kept under hygromycin B selection
In words: FLIPR test of antagonist properties: inhibition of LPA-induced intracellular calcium elevation in CHO-K1 cells expressing hLPAR1. The test is classed as cell-based. Particulars: FLIPR calcium assay, CHO-K1/LPA1R cells, LPA at EC80. The method, then:
The antagonist properties of the compounds of the present disclosure were tested using the FLIPR (fluorometric imaging plate reader) method. The compounds are inhibitors of intracellular calcium elevation induced by activation of hLPARI (human lysophosphatidic acid receptor 1) expressed in CHO-K1 cells (Chinese hamster ovary K1 cells, HDB).
2.1. Reaction buffer: HBSS+20 mM HEPES+0.1% fatty acid-free BSA+0.001% F-127
2.2. 50×Red dye: (a red dye for blocking background signals in cells) prepared by: weighing out 4 g of tartrazine and 10.2 g of acid red and dissolving them in 100 mL of H2O.
2.3. Fluo-8 staining mixture: 4 mL of reaction buffer, 32 μL of fluo-8, 320 μL of 50×Red dye, and 40 μL of probenecid.
3.1. LPA: dissolved in DPBS (containing 0.1% fatty acid-free BSA) to prepare a 0.8 μM stock solution, and the solution was aliquoted and stored at −20° C.
3.2. Test compound preparation: The test compounds were dissolved in DMSO to prepare 10 mM stock solutions, and the solutions were stored at −20° C. In the experiment, the compounds were first gradient-diluted with DMSO (initial concentration of 50 μM, 3-fold dilution, 10 points) to prepare 200×compound solutions. The compound solutions were then diluted with reaction buffer to give 5×compound solutions, and the solutions were transferred to a 384-well plate (Cat. No. 6008590) using Bravo.
4.1. CHO-K1/LPA1R cells were cultured in a cell culture medium (F-12+10% FBS+400 μg/mL hygromycin B).
4.2. When the cell confluence reached 80%, the cells were digested with 0.25% pancreatin.
4.3. When the cells became round, the digestion was stopped with the medium F-12 (10% FBS), and the cells were counted. Then the cell culture was diluted with F-12 (10% FBS) to give a cell suspension with a density of 6.7×10^5 cells/mL.
4.4. The cell suspension was added to a 384-well black cell culture plate at 30 µL/well using a Multidrop auto-dispenser, and the plate was incubated in a 37° C., 5% CO2 incubator for 20-24 h. The medium was changed to a serum-free F-12 medium, and the cells were starved for 24 h.
4.5. Dose experiment for testing LPA. Gradient dilutions of 6×LPA solution (initial concentration of 60 μM, 3-fold dilution, 10 points) were prepared with reaction buffer. The medium in the 384-well black cell culture plate was discarded and changed to reaction buffer. 10 μL of 5% DMSO reaction buffer was added, and 10 μL of Fluo-8 staining mixture was then added. The plate was incubated in the dark in a 37° C., 5% CO2 incubator for 0.5 h.
4.6. FLIPR was correspondingly programmed, the 6×LPA gradient solutions were added, and readings were taken. Two-minute data were collected.
4.7. A reaction curve was obtained from the numerical values of LPA, and the concentration of LPA at EC80 was calculated. A 6×LPA solution was prepared in a 384-well plate (Cat. No. 6008590), and HPE and ZPE were added to corresponding wells. HPE (one hundred per cent effect) was 60 μM LPA, and ZPE (zero per cent effect) was reaction buffer.
4.8. Testing of compounds. The medium in the 384-well black cell culture plate was discarded and changed to reaction buffer. 10 μL of 5×compound solution was transferred using Bravo, and then 10 μL of Fluo-8 staining mixture was added immediately. The plate was incubated in the dark in a 37° C., 5% CO2 incubator for 0.5 h.
4.9. FLIPR was correspondingly programmed, the 6×LPA solution was added, and readings were taken. Two-minute data were collected.
4.10. Finally, the output fluorescence counts were analyzed, and IC50 was calculated for the compounds.
On the technique in general: Calcium assays in cells follow changes in intracellular calcium, usually with a dye or a luminescent sensor.

Some results are limits rather than exact numbers.

T1 sequence (Q92633 whole entry): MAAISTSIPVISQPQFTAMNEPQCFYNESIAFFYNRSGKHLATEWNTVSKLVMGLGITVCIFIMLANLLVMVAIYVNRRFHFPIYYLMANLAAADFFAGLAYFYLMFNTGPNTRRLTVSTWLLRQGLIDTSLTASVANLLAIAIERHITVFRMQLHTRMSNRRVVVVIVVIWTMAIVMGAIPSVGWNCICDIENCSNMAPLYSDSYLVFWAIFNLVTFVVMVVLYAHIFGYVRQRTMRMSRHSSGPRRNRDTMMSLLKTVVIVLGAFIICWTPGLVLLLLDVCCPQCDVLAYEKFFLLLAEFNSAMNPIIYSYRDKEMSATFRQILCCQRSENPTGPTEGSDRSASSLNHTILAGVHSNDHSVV

What is called IC50 is the concentration needed to halve the response being measured. Regarding `CCOCc1ccnc(OCc2c(-c3ccc(OC4CC5CCC(C(=O)O)C5C4)c(C)n3)nnn2C)n1` (single isomer, unassigned) [Compound 13-P2, 5-((6-(5-(((4-(Ethoxymethyl)pyrimidin-2-yl)oxy)methyl)-1-methyl-1H-1,2,3-triazol-4-yl)-2-methylpyridin-3-yl)oxy)octahydropentalene-1-carboxylic acid], the IC50 came to 27.9 nM.

For the compound `COCc1ccnc(OCc2c(-c3ccc(OC4CC5CCC(C)(C(=O)O)C5C4)c(C)n3)nnn2C)n1` (single isomer, unassigned) [Compound 14-P1, 5-((6-(5-(((4-(Methoxymethyl)pyrimidin-2-yl)oxy)methyl)-1-methyl-1H-1,2,3-triazol-4-yl)-2-methylpyridin-3-yl)oxy)-1-methyloctahydropentalene-1-carboxylic acid], the IC50 was 41.5 nM. Regarding `COCc1ccnc(OCc2c(-c3ccc(OC4CC5CCC(C)(C(=O)O)C5C4)c(C)n3)nnn2C)n1` (single isomer, unassigned) [Compound 14-P2, 5-((6-(5-(((4-(Methoxymethyl)pyrimidin-2-yl)oxy)methyl)-1-methyl-1H-1,2,3-triazol-4-yl)-2-methylpyridin-3-yl)oxy)-1-methyloctahydropentalene-1-carboxylic acid], the IC50 was more than 10000 nM.

Consider `CCCN(C)C(=O)OCc1c(-c2ccc(O[C@H]3CCC[C@H](C(=O)O)C3)c(C)n2)nnn1C` [BMS986278, reference compound], for which the IC50 came out at 60.6 nM. Next, `Cc1nc(-c2nnn(C)c2COc2nccc(C(F)(F)F)n2)ccc1OC1CC2CCC(C(=O)O)C2C1` (centres unmarked) [Compound 1, 5-((2-Methyl-6-(1-methyl-5-(((4-(trifluoromethyl)pyrimidin-2-yl)oxy)methyl)-1H-1,2,3-triazol-4-yl)pyridin-3-yl)oxy)octahydropentalene-1-carboxylic acid]: 16.7 nM. `Cc1nc(-c2nnn(C)c2COc2nccc(C(F)F)n2)ccc1OC1CC2CCC(F)(C(=O)O)C2C1` (centres unmarked) [Compound 6, 5-((6-(5-(((4-(Difluoromethyl)pyrimidin-2-yl)oxy)methyl)-1-methyl-1H-1,2,3-triazol-4-yl)-2-methylpyridin-3-yl)oxy)-1-fluorooctahydropentalene-1-carboxylic acid]: the IC50 came to 39.6 nM. As for `Cc1nc(-c2nnn(C)c2COc2nccc(C(F)F)n2)ccc1OC1CC2CCC(C(=O)O)C2C1` (centres unmarked) [Compound 7, 5-((6-(5-(((4-(Difluoromethyl)pyrimidin-2-yl)oxy)methyl)-1-methyl-1H-1,2,3-triazol-4-yl)-2-methylpyridin-3-yl)oxy)octahydropentalene-1-carboxylic acid], the IC50 turned out to be 93.9 nM. For `Cc1nc(-c2nnn(C)c2COc2nccc(C(F)(F)F)n2)ccc1O[C@H]1CCC[C@H](C(=O)O)C1` [Compound 12, (1S,3S)-3-((2-Methyl-6-(1-methyl-5-(((4-(trifluoromethyl)pyrimidin-2-vl)oxy)methyl)-1H-1,2,3-triazol-4-yl)pyridin-3-yl)oxy)cyclohexane-1-carboxylic acid] the value was 75 nM.

For the origin of these results see patent publication US20240317725A1, “LPA1 SMALL MOLECULE ANTAGONIST” (TUOJIE BIOTECH (SHANGHAI) CO., LTD., priority 2021, published 2024).
